For the experiment, the target named is T1, Hb (Homo sapiens, UniProt P68871+P69905).
T1 construct: from tissue; host or cells: whole blood
T1 sequence (P69905 2-142 limits assumed): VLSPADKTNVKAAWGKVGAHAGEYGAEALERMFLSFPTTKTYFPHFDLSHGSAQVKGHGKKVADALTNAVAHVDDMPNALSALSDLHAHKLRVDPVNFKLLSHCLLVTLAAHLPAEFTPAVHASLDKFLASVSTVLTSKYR
T1 sequence (P68871 2-147 limits assumed): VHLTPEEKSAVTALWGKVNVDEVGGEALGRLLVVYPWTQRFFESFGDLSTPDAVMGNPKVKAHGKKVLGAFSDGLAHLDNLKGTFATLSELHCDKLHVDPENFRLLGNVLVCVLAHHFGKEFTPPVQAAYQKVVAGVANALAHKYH
The experiment is described as follows: Whole blood assay: oxygen equilibrium curves (Hemox Analyzer), change in p50. It is filed as cell-based. Conditions: whole blood incubated 1 h at 37° C., equimolar ratio of hemoglobin to compound. Here is the method: Whole blood assay: Oxygen equilibrium curves (OECs) were collected using a TCS Hemox Analyzer (TCS Scientific Company, New Hope, Pa., USA) to measure changes in the binding affinity of O2 to Hb. Whole blood was incubated for 1 h at 37° C. with the indicated compounds in an equimolar ratio of hemoglobin to compound and diluted into TES (2-[[1,3-dihydroxy-2-(hydroxymethyl)propan-2-yl]amino]ethanesulfonic acid)/saline buffer prior to measurements. For example, for whole blood at 20% hematocrit [Hct], which corresponds to 1 mM Hb, a compound concentration of 1 mM was used (for example, for compounds 1-5), and the incubated sample diluted 50- to 100-fold. The concentration for compounds 6-44 (Diastereomers 1 and 2) varied but remained in equimolar ratio to hemoglobin. The diluted samples were then oxygenated with compressed air within the Hemox Analyzer and the OECs were collected during deoxygenation as previously described (Guarnone et al., Haematologica, 1995, 80, 426-430). p 50 (partial pressure of O2 at which Hb is 50% saturated with O2) values were obtained using a non-linear regression analysis. Percentage change in p50 [Δp50(%)] was calculated as follows: Δp50(%)=[(p50 of control)−p50 with compound)/p50 control]×100.
`O=Cc1c(O)cccc1OCC1CSCCN1C(=O)c1cccnc1CCO` (single isomer, unassigned) [10 (Enantiomer 1), 2-hydroxy-6-((4-(2-(2-hydroxyethyl)nicotinoyl)-thiomorpholin-3-yl)-methoxy)benzaldehyde]: the “Delta-p50 (%)” value is on record as 65.6%.
The result for `O=Cc1c(O)cccc1OCC1CSCCN1C(=O)c1cccnc1CO` (single isomer, unassigned) [13 (Enantiomer 2), 2-hydroxy-6-((4-(2-(hydroxymethyl)nicotinoyl)-thiomorpholin-3-yl)-methoxy)benzaldehyde] reads 61.0%; that for `O=Cc1c(O)cccc1OC[C@@H]1CCCCN1C(=O)c1ccccc1C(O)CO` (single isomer, unassigned) [34 (Diastereomer 1)], 80.43%.
With `O=Cc1c(O)cccc1OC[C@@H]1CCCCN1C(=O)c1ccccc1C(O)CO` (single isomer, unassigned) [34 (Diastereomer 2)], the “Delta-p50 (%)” value stood at 81.59%.
As to `O=Cc1c(O)cccc1OCC1CSCCN1C(=O)c1ccccc1CO` (single isomer, unassigned) [40 (Enantiomer 1), 2-hydroxy-6-((4-(2-(hydroxymethyl)benzoyl)-thiomorpholin-3-yl)-methoxy)benzaldehyde], the “Delta-p50 (%)” value is 64.31%.
The result for `CC(O)c1ncccc1C(=O)N1CCOC[C@H]1COc1cccc(O)c1C=O` (single isomer, unassigned) [41 (Diastereomer 1)] reads 66.71%; that for `CC(O)c1ncccc1C(=O)N1CCOC[C@H]1COc1cccc(O)c1C=O` (single isomer, unassigned) [41 (Diastereomer 2)], 53.94%.
The result for `CC(O)Cc1ncccc1C(=O)N1CCOC[C@H]1COc1cccc(O)c1C=O` (single isomer, unassigned) [42 (Diastereomer 1)] reads 76.39%.
With `CC(O)Cc1ncccc1C(=O)N1CCOC[C@H]1COc1cccc(O)c1C=O` (single isomer, unassigned) [42 (Diastereomer 2)], the “Delta-p50 (%)” value came to 75.05%.
The result for `CC(O)c1ncccc1C(=O)N1CCSC[C@H]1COc1cccc(O)c1C=O` (single isomer, unassigned) [43 (Diastereomer 1)] reads 64.50%; that for `CC(O)c1ncccc1C(=O)N1CCSC[C@H]1COc1cccc(O)c1C=O` (single isomer, unassigned) [43 (Diastereomer 2)], 64.56%; that for `CC(O)Cc1ncccc1C(=O)N1CCSC[C@H]1COc1cccc(O)c1C=O` (single isomer, unassigned) [44 (Diastereomer 1)], 66.57%.
For `CC(O)Cc1ncccc1C(=O)N1CCSC[C@H]1COc1cccc(O)c1C=O` (single isomer, unassigned) [44 (Diastereomer 2)], the “Delta-p50 (%)” value is given as 54.34%.
In the case of `COCCc1ncccc1C(=O)N1CCCC[C@H]1COc1cccc(O)c1C=O` [Compound 2, (S)-2-hydroxy-6-((1-(2-(2-methoxyethyl)nicotinoyl)piperidin-2-yl)methoxy)benzaldehyde], the “Delta-p50 (%)” value is recorded as 84.4%.
On to `N#CCCc1ncccc1C(=O)N1CCCC[C@H]1COc1cccc(O)c1C=O` [Compound 3, (S)-3-(3-(2-((2-formyl-3-hydroxyphenoxy)methyl)piperidine-1-carbonyl)pyridin-2-yl)propanenitrile], for which the “Delta-p50 (%)” value was determined as 85.8%.
Consider `O=Cc1c(O)cccc1OC[C@@H]1CCCCN1C(=O)c1cccnc1CCN1CCCC1` [Compound 4, (S)-2-hydroxy-6-((1-(2-(2-(pyrrolidin-1-yl)ethyl)nicotinoyl)piperidin-2-yl)methoxy)benzaldehyde], for which the “Delta-p50 (%)” value is on record as 75.5%.
As for `O=Cc1c(O)cccc1OC[C@@H]1CCCCN1C(=O)c1ccccc1CO` [Compound 5, (S)-2-hydroxy-6-((1-(2-(hydroxymethyl)benzoyl)piperidin-2-yl)methoxy)benzaldehyde], the “Delta-p50 (%)” value worked out at 81.0%.
Take `O=Cc1c(O)cccc1OC[C@@H]1CCCCN1C(=O)c1ccccc1CCO` [Compound 6, (S)-2-hydroxy-6-((1-(2-(2-hydroxyethyl)benzoyl)-piperidin-2-yl)methoxy)-benzaldehyde]: the “Delta-p50 (%)” value amounted to 74.5%.
Consider `O=Cc1c(O)cccc1OC[C@@H]1CCCCN1C(=O)c1nccnc1CCO` [Compound 7, (S)-2-hydroxy-6-((1-(3-(2-hydroxyethyl)pyrazine-2-carbonyl)piperidin-2-yl)methoxy)benzaldehyde], for which the “Delta-p50 (%)” value was 62.7%.
Consider `O=Cc1c(O)cccc1OC[C@@H]1CCCN1C(=O)c1cccnc1CCO` [Compound 9, (S)-2-hydroxy-6-((1-(2-(2-hydroxyethyl)-nicotinoyl)pyrrolidin-2-yl)methoxy)benzaldehyde], for which the “Delta-p50 (%)” value amounted to 62.2%.
The result for `COCCc1ccccc1C(=O)N1CCCC[C@H]1COc1cccc(O)c1C=O` [Compound 14, (S)-2-hydroxy-6-((1-(2-(2-methoxyethyl)benzoyl)piperidin-2-yl)methoxy)benzaldehyde] reads 74.56%; that for `N#CCCc1ccccc1C(=O)N1CCCC[C@H]1COc1cccc(O)c1C=O` [Compound 15, (S)-3-(2-(2-((2-formyl-3-hydroxyphenoxy)methyl)piperidine-1-carbonyl)phenyl)propanenitrile], 80.5%; that for `O=Cc1c(O)cccc1OC[C@@H]1CCCCN1C(=O)c1ncccc1CCO` [Compound 16, (S)-2-hydroxy-6-((1-(3-(2-hydroxyethyl)picolinoyl)piperidin-2-yl)methoxy)benzaldehyde], 49.55%.
Turning to `O=Cc1c(O)cccc1OC[C@@H]1CCCCN1C(=O)c1ccccc1CCN1CCCC1` [Compound 17, (S)-2-hydroxy-6-((1-(2-(2-(pyrrolidin-1-yl)ethyl)benzoyl)piperidin-2-yl)methoxy)benzaldehyde], the “Delta-p50 (%)” value amounted to 27.09%.
The result for `O=Cc1c(O)cccc1OC[C@@H]1CCCCN1C(=O)c1cccnc1CCCO` [Compound 18, (S)-2-hydroxy-6-((1-(2-(3-hydroxypropyl)nicotinoyl)-piperidin-2-yl)methoxy)-benzaldehyde] reads 79.67%.
In the case of `O=Cc1c(O)cccc1OC[C@@H]1CCCN1C(=O)c1nccnc1CCO` [Compound 19, (S)-2-hydroxy-6-((1-(3-(2-hydroxyethyl)pyrazine-2-carbonyl)pyrrolidin-2-yl)methoxy)benzaldehyde], the “Delta-p50 (%)” value is recorded as 54.67%.
Consider `O=Cc1c(O)cccc1OC[C@@H]1COCCN1C(=O)c1nccnc1CCO` [Compound 21, 2-hydroxy-6-{[(3S)-4-[3-(2-hydroxyethyl)pyrazine-2-carbonyl]morpholin-3-yl]methoxy}benzaldehyde], for which the “Delta-p50 (%)” value is reported as 60.21%.
`O=Cc1c(O)cccc1OC[C@@H]1COCCN1C(=O)c1ccccc1CCO` [Compound 22, 2-hydroxy-6-{[(3S)-4-[2-(2-hydroxyethyl)benzoyl]morpholin-3-yl]methoxy}benzaldehyde]: the “Delta-p50 (%)” value is on record as 70.32%.
The result for `COCCc1ncccc1C(=O)N1CCC[C@H]1COc1cccc(O)c1C=O` [Compound 24, 2-hydroxy-6-{[(2S)-1-[2-(2-methoxyethyl)pyridine-3-carbonyl]pyrrolidin-2-yl]methoxy}benzaldehyde] reads 65.51%; that for `COCCc1nccnc1C(=O)N1CCC[C@H]1COc1cccc(O)c1C=O` [Compound 25, 2-hydroxy-6-{[(2S)-1-[3-(2-methoxyethyl)pyrazine-2-carbonyl]pyrrolidin-2-yl]methoxy}benzaldehyde], 53.36%; that for `O=Cc1c(O)cccc1OC[C@@H]1CCCN1C(=O)c1ccccc1CO` [Compound 26, 2-hydroxy-6-{[(2S)-1-[2-(hydroxymethyl)benzoyl]pyrrolidin-2-yl]methoxy}benzaldehyde], 51.72%.
Turning to `COCCc1nccnc1C(=O)N1CCOC[C@H]1COc1cccc(O)c1C=O` [Compound 27, 2-hydroxy-6-{[(3S)-4-[3-(2-methoxyethyl)pyrazine-2-carbonyl]morpholin-3-yl]methoxy}benzaldehyde], the “Delta-p50 (%)” value was 66.58%.
On to `N#CCCc1ncccc1C(=O)N1CCOC[C@H]1COc1cccc(O)c1C=O` [Compound 28, 3-{3-[(3S)-3-[(2-formyl-3-hydroxyphenoxy)methyl]morpholine-4-carbonyl]pyridin-2-yl}propanenitrile], for which the “Delta-p50 (%)” value was found to be 83.35%.
Regarding `COCCc1ccccc1C(=O)N1CCOC[C@H]1COc1cccc(O)c1C=O` [Compound 29, 2-hydroxy-6-{[(3S)-4-[2-(2-methoxyethyl)benzoyl]morpholin-3-yl]methoxy}benzaldehyde], the “Delta-p50 (%)” value is reported as 78.79%.
Take `N#CCCc1ncccc1C(=O)N1CCC[C@H]1COc1cccc(O)c1C=O` [Compound 30, (S)-3-(3-(2-((2-formyl-3-hydroxyphenoxy)methyl)-pyrrolidine-1-carbonyl)-pyridin-2-yl)propanenitrile]: the “Delta-p50 (%)” value came out at 74.19%.
On to `N#CCCc1ccccc1C(=O)N1CCOC[C@H]1COc1cccc(O)c1C=O` [Compound 31, 3-{2-[(3S)-3-[(2-formyl-3-hydroxyphenoxy)methyl]morpholine-4-carbonyl]phenyl}propanenitrile], for which the “Delta-p50 (%)” value was 74.03%.

Values taken from patent US11548880B2, “Modulators of hemoglobin” (Global Blood Therapeutics, Inc., priority 2018, dated 2023).
